Laboratory results reported in paper PMC6943742, “Peptide/Peptoid Hybrid Oligomers: The Influence of Hydrophobicity and Relative Side-Chain Length on Antibacterial Activity and Cell Selectivity” (Molecules, 2019).
Converted amounts (≈) assume the structure as drawn. Non-standard residues stand in square brackets, D forms with d. Residues, ends and D or L forms follow the SMILES beside them. Gly(NCH2CH2Ph) = O=C(O)CNCCc1ccccc1; hPhe = N[C@@H](CCc1ccccc1)C(=O)O; Gly(N(CH2)3NH2) = NCCCNCC(=O)O; hLys = NCCCCC[C@H](N)C(=O)O; Nphe = O=C(O)CNCc1ccccc1; Orn = NCCC[C@H](N)C(=O)O; Nlys = NCCCCNCC(=O)O

What was measured:
[1] = in vitro; type: cell-based; settings: human, Hemolytic Activity (percentage hemolysis)
Procedure: The lysis of human red blood cells was measured as previously described, with modifications. In brief, freshly drawn human red blood cells (hRBCs) were washed three times with PBS buffer and centrifuged two times for 5 min at 2500 rpm. A two-fold serial dilution of peptidomimetics in PBS buffer was added to each well in a sterile polypropylene V-bottom 96-well plate to the total volume of 75 μL. A 0.5% v/v hRBC suspension (75 μL in PBS buffer) was added to each well to reach a final volume of 150 μL in each well. The plate was incubated (37 °C) for 60 min, and then the cells were subsequently pelleted by centrifugation at 1000 rpm for 5 min. The supernatants (50 μL) were transferred to clear, flat-bottomed plastic 96-well plates. The concentration of hemoglobin was detected by measuring the OD at 405 nm. The OD of cells incubated with 0.1% SDS defined 100% hemolysis, while the OD of cells incubated with PBS buffer defined 0% hemolysis. The concentrations tested were 200, 400, and 800 μg/mL (only average values for the highest concentration are stated in Table 2).

[2] = Relative hydrophobicity by RP-HPLC (% MeCN at peak elution); type: physicochemical; settings: RP-HPLC gradient 0 → 60% B during 10 min; % MeCN at peak elution calculated from retention time
Procedure: The relative hydrophobicity of each peptidomimetic was measured by reverse-phase high-performance liquid chromatography (RP-HPLC). Typically, the RP-HPLC retention time (or percentage acetonitrile at peak elution) constitutes the preferred measure that allows for comparison of relative hydrophobicity, while log P values of polycationic peptides or peptidomimetics normally are considered unsuitable due to the extreme hydrophilic nature of such compounds [11, 45, 57, 58, 59, 60]. […] For both subgroups III (with cationic amino acid residues and the peptoid analogue of Phe, NPhe, i.e., 9–12) and IV (with cationic amino acid residues and the peptoid analogue of hPhe, NhPhe, i.e., 13–16) only minor differences in hydrophobicity were seen. These observations infer that, when the cationic residues are of a peptoid nature, the side-chain length of these has a […] influence on the hydrophobicity. […] Thus, introduction of additional six methylene groups results, as expected, in increased hydrophobicity.
Starting materials and solvents were purchased from commercial suppliers (Iris Biotech, Markredwitz, Germany; Fluorochem, Hadfield, United Kingdom; and Merck, Darmstadt, Germany) and used without further purification. Water used for analytical and preparative high-performance liquid chromatography (HPLC) was filtered through a 0.22-μm Millipore membrane filter. Purity and retention time of each peptidomimetic were determined by analytical UHPLC by using a Phenomenex Luna C18(2) HST column (100 mm × 3 mm; particle size: 2.5 μm; pore size: 100 Å) on a Shimadzu Prominence and Shimadzu Nexera system using an aqueous acetonitrile (MeCN) gradient with 0.1% trifluoroacetic acid (TFA) added (eluent A: 5:95 MeCN–H2O + 0.1% TFA, eluent B: 95:5 MeCN–H2O + 0.1% TFA); a flow rate of 0.5 mL/min was used. For elution of peptidomimetics, a linear gradient of 0% to 60% B during 10 min was used with UV detection at λ = 220 nm. […] For each peptidomimetic, the percentage of MeCN at peak elution was calculated from the retention time by using the following formula:(1) %MeCN = 0.95 (0.6Rt/10 min.) + 0.05 (1−0.6Rt/10 min.).

[3] = tested on: E. coli ATCC 25922; type: cell-based; settings: ATCC 25922, 20 h
Procedure: (§1) MIC values were evaluated by using the modified Hancock lab protocol in non-binding polystyrene microtitre plates, with bacterial suspensions of ∼2 × 10^5 CFU/mL in Mueller-Hinton broth (Difco, Sparks MD, USA), with Mg^2+ and Ca^2+ concentrations of 4 mg/L each. The compounds were dissolved in H2O and diluted in 0.01% acetic acid, 0.2% BSA (final concentration). Aliquots of 11 µL of 10 × test compounds were then transferred to the appropriate wells with bacterial suspensions. For preparation and transfer of the solutions of the compounds, low-binding sterile tubes and tips (Axygen, Union City CA, USA) were used. After 20 h incubation of covered plates at 35 °C (±2 °C) with circular shaking at 220 rpm, the MICs were read. The antibacterial activity of peptidomimetics was tested against E. coli ATCC 25922, K. pneumoniae ATCC 13883, P. aeruginosa ATCC 27853, P. aeruginosa PAO1, A. baumannii ATCC 19606, S. aureus ATCC 29213, and E. faecalis ATCC 29212.

[4] = tested on: P. aeruginosa PAO1; type: cell-based; settings: PAO1, 20 h
Procedure: as §1

[5] = tested on: P. aeruginosa ATCC 27853; type: cell-based; settings: ATCC 27853, 20 h
Procedure: as §1

[6] = tested on: S. aureus ATCC 29213; type: cell-based; settings: for MIC: ATCC 29213, 20 h
Procedure: as §1

[7] = tested on: E. faecalis ATCC 29212; type: cell-based; settings: ATCC 29212, 20 h
Procedure: as §1

[8] = tested on: K. pneumoniae ATCC 13883; type: cell-based; settings: ATCC 13883, 20 h
Procedure: as §1

[9] = tested on: A. baumannii ATCC 19606; type: cell-based; settings: ATCC 19606, 20 h
Procedure: as §1

[10] = tested on: HepG2 cell line ATCC HB-8065; test: in vitro; type: cell-based; settings: 48 h
Procedure: (§2) Side effects affecting cell viability were estimated on the HepG2 cell line ATCC HB-8065. In brief, HepG2 cells were seeded in flat-bottomed 96-well plates at a concentration of 5000 cells per well. At 80−90% confluency, the cells were incubated for 24 h in a humidified incubator (5% CO2, 37 °C). The medium was removed, and the cells were incubated for 48 h in a humidified incubator (5% CO2, 37 °C) with compounds in two-fold serial dilutions. An MTT assay was then performed as previously described. In brief, after incubation with the test compounds, the culture medium was removed and fresh medium with 0.2 mg/mL MTT was added in each well of the plate. After incubation (3 h, 37 °C, 5% CO2), the medium with MTT was removed, and 200 μL dimethyl sulfoxide were added at once to each sample. Absorbance of MTT was measured using spectrophotometer TECAN Infinite M1000 at 540 nm. The relative viability was calculated by using the formula: ODtreated cells × 100/ODcontrol cells. The IC50 values are calculated by using the program Graph Pad Prism® 5.0. For all compounds, the test range was 10–1280 μg/mL.

[11] = in vitro; type: cell-based; settings: human
Procedure: as §2

Hydrophobicity (% MeCN at elution) [2]	MIC [3]	MIC [4]	MIC [5]	MIC [6]	MIC [7]	MIC [8]	MIC [9]	IC50 for inhibiting growth of HepG2 cells [10]	Compound	hemolysis at 60 min, 800 µg/mL [1]	Activity against S. aureus (in words) ([6]; S. aureus)	viability at 48 h, 1280 µg/mL [11]
40.6%	2 to 4 mg/L	32 to 64 mg/L	32 mg/L (≈ 18.3 µM)	>64 mg/L	>64 mg/L	>64 mg/L	>64 mg/L	720 mg/L	NCCCCNCC(=O)N[C@@H](CCc1ccccc1)C(=O)N(CCCCN)CC(=O)N[C@@H](CCc1ccccc1)C(=O)N(CCCCN)CC(=O)N[C@@H](CCc1ccccc1)C(=O)N(CCCCN)CC(=O)N[C@@H](CCc1ccccc1)C(=O)N(CCCCN)CC(=O)N[C@@H](CCc1ccccc1)C(=O)N(CCCCN)CC(=O)N[C@@H](CCc1ccccc1)C(N)=O [Peptidomimetic 7] (H-[Nlys][hPhe][Nlys][hPhe][Nlys][hPhe][Nlys][hPhe][Nlys][hPhe][Nlys][hPhe]-NH2)	6%		
41.2%	4 mg/L (≈ 2.4 µM)	16 to 32 mg/L	8 mg/L (≈ 4.79 µM)	16 mg/L (≈ 9.59 µM)	>64 mg/L	>64 mg/L	>64 mg/L	456 mg/L	NCCCNCC(=O)N[C@@H](CCc1ccccc1)C(=O)N(CCCN)CC(=O)N[C@@H](CCc1ccccc1)C(=O)N(CCCN)CC(=O)N[C@@H](CCc1ccccc1)C(=O)N(CCCN)CC(=O)N[C@@H](CCc1ccccc1)C(=O)N(CCCN)CC(=O)N[C@@H](CCc1ccccc1)C(=O)N(CCCN)CC(=O)N[C@@H](CCc1ccccc1)C(N)=O [Peptidomimetic 6] (H-[Gly(N(CH2)3NH2)][hPhe][Gly(N(CH2)3NH2)][hPhe][Gly(N(CH2)3NH2)][hPhe][Gly(N(CH2)3NH2)][hPhe][Gly(N(CH2)3NH2)][hPhe][Gly(N(CH2)3NH2)][hPhe]-NH2)	8%	moderate activity	
35.6%	8 to 16 mg/L	>64 mg/L	>64 mg/L	>64 mg/L	>64 mg/L	32 mg/L (≈ 19.2 µM)	>64 mg/L	1280 mg/L	NCCCCNCC(=O)N[C@@H](Cc1ccccc1)C(=O)N(CCCCN)CC(=O)N[C@@H](Cc1ccccc1)C(=O)N(CCCCN)CC(=O)N[C@@H](Cc1ccccc1)C(=O)N(CCCCN)CC(=O)N[C@@H](Cc1ccccc1)C(=O)N(CCCCN)CC(=O)N[C@@H](Cc1ccccc1)C(=O)N(CCCCN)CC(=O)N[C@@H](Cc1ccccc1)C(N)=O [Peptidomimetic 3] (H-[Nlys]F[Nlys]F[Nlys]F[Nlys]F[Nlys]F[Nlys]F-NH2)	8%		52%
38.0%	2 mg/L (≈ 1.14 µM)	64 mg/L (≈ 36.5 µM)	64 mg/L (≈ 36.5 µM)	>64 mg/L	>64 mg/L	>64 mg/L		1280 mg/L	NCCCCC[C@H](NC(=O)CN(Cc1ccccc1)C(=O)[C@H](CCCCCN)NC(=O)CN(Cc1ccccc1)C(=O)[C@H](CCCCCN)NC(=O)CN(Cc1ccccc1)C(=O)[C@H](CCCCCN)NC(=O)CN(Cc1ccccc1)C(=O)[C@H](CCCCCN)NC(=O)CN(Cc1ccccc1)C(=O)[C@@H](N)CCCCCN)C(=O)N(CC(N)=O)Cc1ccccc1 [Peptidomimetic 12] (H-[hLys][Nphe][hLys][Nphe][hLys][Nphe][hLys][Nphe][hLys][Nphe][hLys][Nphe]-NH2)	9%		47%
40.5%	4 to 8 mg/L	8 to 16 mg/L	8 mg/L (≈ 4.79 µM)	>64 mg/L	>64 mg/L	32 mg/L (≈ 19.2 µM)	>64 mg/L	684 mg/L	NCCC[C@H](NC(=O)CN(CCc1ccccc1)C(=O)[C@H](CCCN)NC(=O)CN(CCc1ccccc1)C(=O)[C@H](CCCN)NC(=O)CN(CCc1ccccc1)C(=O)[C@H](CCCN)NC(=O)CN(CCc1ccccc1)C(=O)[C@H](CCCN)NC(=O)CN(CCc1ccccc1)C(=O)[C@@H](N)CCCN)C(=O)N(CCc1ccccc1)CC(N)=O [Peptidomimetic 14] (H-[Orn][Gly(NCH2CH2Ph)][Orn][Gly(NCH2CH2Ph)][Orn][Gly(NCH2CH2Ph)][Orn][Gly(NCH2CH2Ph)][Orn][Gly(NCH2CH2Ph)][Orn][Gly(NCH2CH2Ph)]-NH2)	11%		
40.5%	4 mg/L (≈ 2.28 µM)	8 to 16 mg/L	16 mg/L (≈ 9.13 µM)	>64 mg/L	>64 mg/L	>64 mg/L	64 mg/L (≈ 36.5 µM)	595 mg/L	NCCCC[C@H](NC(=O)CN(CCc1ccccc1)C(=O)[C@H](CCCCN)NC(=O)CN(CCc1ccccc1)C(=O)[C@H](CCCCN)NC(=O)CN(CCc1ccccc1)C(=O)[C@H](CCCCN)NC(=O)CN(CCc1ccccc1)C(=O)[C@H](CCCCN)NC(=O)CN(CCc1ccccc1)C(=O)[C@@H](N)CCCCN)C(=O)N(CCc1ccccc1)CC(N)=O [Peptidomimetic 15] (H-K[Gly(NCH2CH2Ph)]K[Gly(NCH2CH2Ph)]K[Gly(NCH2CH2Ph)]K[Gly(NCH2CH2Ph)]K[Gly(NCH2CH2Ph)]K[Gly(NCH2CH2Ph)]-NH2)	8%		
